Patent US12686673B2 (Blueprint Medicines Corporation, priority 2020, dated 2026)
Where a name gives a salt, the structure may show the parent alone.

How the values were obtained:
Format in all cases: cell-based
[1] = test system: A431 cells; assay: Cellular proliferation (Alamar Blue) assay, A431; settings: Homo sapiens, A-431; A431 cells, Alamar Blue, 72 hr; read-out: A431 IC50
Protocol: (§1) • 1. EGFR(D770_N771insSVD) expressing Ba/F3 stable cell line • 2. EGFR (A767_dupASV) expressing Ba/F3 stable cell line • 3. A431 cells • 4. EGFR (H773insNPH) expressing Ba/F3 stable cell line • 5. HER2 (A775_G776insYVMA) expressing Ba/F3 stable cell line Assay Procedure: • 1. Seed cells at 5000 for A431 and 15,000 cells for Ba/F3 in 100 μL/well in complete media (for A431: DMEM with […] and for Ba/F3 cells: RPMI with 10% FBS) in 96-well tissue culture plate. Leave outer wells without cells for background measurements. Incubate at 37 degree Celsius in […] humidified incubator for 16-18 hours. • 2. Add 0.025 ml of 5× concentration compound dilution or DMSO control. Final compound concentration range is 10-0.0005 μM prepared in 3-fold serial dilutions. Incubate for 72 hr at 37 degree Celsius in […] humidified incubator. • 3. Add 0.0125 ml Alamar Blue™ reagent to each well with multi-channel pipette and tap gently on each side of the plate to mix. Incubate for 3 hours at 37 degree Celsius in 5% CO2 humidified incubator. • 4. […] Data analysis was performed using XLfit 5.5.0.5.

[2] = target: EGFR (A767_dupASV) expressing Ba/F3 stable cell line (Homo sapiens, UniProt P00533, DUP767-769, cells depend on it); assay: Cellular proliferation (Alamar Blue) assay, EGFR A767_dupASV Ba/F3; settings: 72 hr, read-out: A767 IC50
Sequence of EGFR (A767_dupASV) expressing Ba/F3 stable cell line (P00533 with tags, fused parts or gaps DUP767-769): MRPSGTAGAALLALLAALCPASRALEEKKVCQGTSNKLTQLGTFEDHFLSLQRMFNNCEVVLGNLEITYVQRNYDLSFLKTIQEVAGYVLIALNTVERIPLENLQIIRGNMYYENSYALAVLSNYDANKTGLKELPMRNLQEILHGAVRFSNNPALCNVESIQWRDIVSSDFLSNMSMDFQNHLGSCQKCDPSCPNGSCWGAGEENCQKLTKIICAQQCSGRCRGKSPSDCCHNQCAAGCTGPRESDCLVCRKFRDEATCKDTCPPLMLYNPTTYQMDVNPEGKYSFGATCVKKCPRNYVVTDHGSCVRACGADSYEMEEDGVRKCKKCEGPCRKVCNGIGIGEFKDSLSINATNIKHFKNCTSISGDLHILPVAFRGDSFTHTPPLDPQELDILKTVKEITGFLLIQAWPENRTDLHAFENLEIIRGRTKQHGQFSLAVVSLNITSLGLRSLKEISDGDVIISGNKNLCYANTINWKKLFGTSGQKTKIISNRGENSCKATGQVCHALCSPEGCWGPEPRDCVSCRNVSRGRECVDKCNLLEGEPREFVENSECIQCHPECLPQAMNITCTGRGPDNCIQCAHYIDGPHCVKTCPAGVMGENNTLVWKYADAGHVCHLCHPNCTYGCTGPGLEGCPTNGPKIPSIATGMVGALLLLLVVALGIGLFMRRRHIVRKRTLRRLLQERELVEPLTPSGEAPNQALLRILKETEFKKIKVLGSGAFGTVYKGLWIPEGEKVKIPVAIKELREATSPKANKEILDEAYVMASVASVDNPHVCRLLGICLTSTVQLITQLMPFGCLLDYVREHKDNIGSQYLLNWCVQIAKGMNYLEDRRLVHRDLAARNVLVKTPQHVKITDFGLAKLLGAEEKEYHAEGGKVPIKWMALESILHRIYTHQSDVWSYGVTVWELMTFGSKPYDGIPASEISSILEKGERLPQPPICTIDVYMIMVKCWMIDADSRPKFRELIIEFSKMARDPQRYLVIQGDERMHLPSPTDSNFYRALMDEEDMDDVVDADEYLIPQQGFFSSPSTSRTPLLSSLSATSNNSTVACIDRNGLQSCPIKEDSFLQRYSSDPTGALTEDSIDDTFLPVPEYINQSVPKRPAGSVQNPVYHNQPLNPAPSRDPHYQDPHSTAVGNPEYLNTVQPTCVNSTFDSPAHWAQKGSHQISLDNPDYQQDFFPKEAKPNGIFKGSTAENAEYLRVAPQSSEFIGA
Protocol: as §1

[3] = target: EGFR(D770_N771insSVD) expressing Ba/F3 stable cell line (Homo sapiens, UniProt P00533, DUP768-770, cells depend on it); assay: Cellular proliferation (Alamar Blue) assay, EGFR D770_N771insSVD Ba/F3; settings: 72 hr, read-out: D770 IC50
Sequence of EGFR(D770_N771insSVD) expressing Ba/F3 stable cell line (P00533 with tags, fused parts or gaps DUP768-770): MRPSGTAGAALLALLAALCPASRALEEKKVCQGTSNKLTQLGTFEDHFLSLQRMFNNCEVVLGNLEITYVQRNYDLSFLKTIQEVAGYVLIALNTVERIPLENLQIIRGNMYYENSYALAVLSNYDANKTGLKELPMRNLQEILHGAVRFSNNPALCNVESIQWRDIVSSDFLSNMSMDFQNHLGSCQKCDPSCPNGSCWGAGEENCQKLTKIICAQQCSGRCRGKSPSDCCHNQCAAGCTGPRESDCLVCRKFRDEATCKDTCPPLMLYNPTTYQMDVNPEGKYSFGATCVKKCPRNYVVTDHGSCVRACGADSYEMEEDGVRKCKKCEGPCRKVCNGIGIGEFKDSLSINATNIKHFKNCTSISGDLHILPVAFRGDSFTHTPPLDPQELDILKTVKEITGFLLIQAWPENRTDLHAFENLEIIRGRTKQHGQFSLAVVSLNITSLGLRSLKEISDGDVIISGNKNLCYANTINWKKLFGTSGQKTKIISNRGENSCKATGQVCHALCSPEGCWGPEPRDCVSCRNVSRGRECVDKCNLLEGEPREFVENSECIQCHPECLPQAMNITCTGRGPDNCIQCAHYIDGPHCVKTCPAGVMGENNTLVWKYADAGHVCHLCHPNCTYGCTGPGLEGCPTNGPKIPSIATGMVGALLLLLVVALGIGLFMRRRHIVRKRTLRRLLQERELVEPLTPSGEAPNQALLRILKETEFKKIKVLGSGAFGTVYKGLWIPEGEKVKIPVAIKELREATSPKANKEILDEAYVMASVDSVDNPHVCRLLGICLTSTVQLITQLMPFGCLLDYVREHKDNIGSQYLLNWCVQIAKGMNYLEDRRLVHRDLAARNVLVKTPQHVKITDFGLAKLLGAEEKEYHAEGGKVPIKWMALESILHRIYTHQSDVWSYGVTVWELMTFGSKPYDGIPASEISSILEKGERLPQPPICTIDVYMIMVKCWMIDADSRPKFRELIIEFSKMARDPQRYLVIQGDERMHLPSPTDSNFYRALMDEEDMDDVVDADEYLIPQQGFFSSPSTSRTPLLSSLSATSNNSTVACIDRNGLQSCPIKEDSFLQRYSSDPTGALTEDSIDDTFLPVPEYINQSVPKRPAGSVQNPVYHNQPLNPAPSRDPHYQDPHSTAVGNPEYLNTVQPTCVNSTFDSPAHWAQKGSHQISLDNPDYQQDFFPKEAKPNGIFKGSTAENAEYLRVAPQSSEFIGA
Protocol: as §1

Row | SMILES | IC50 [1] | GI50 [2] | GI50 [3]
1 | C=CC(=O)Nc1ccc(F)c(Nc2nc(Nc3cnn(C)c3)ncc2-c2ccc(NC(C)=O)cc2)c1 [Compound 58, N-(3-((5-(4-acetamidophenyl)-2-((1-methyl-1H-pyrazol-4-yl)amino)pyrimidin-4-yl)amino)-4-fluorophenyl)acrylamide] | > 10000 nM | 2660 nM | 2890 nM
2 | C=CC(=O)Nc1ccc(F)c(Nc2nc(Nc3cnn(C)c3)ncc2-c2ccc(C(=O)NC)cc2)c1 [Compound 64, 4-(4-((5-acrylamido-2-fluorophenyl)amino)-2-((1-methyl-1H-pyrazol-4-yl)amino)pyrimidin-5-yl)-N-methylbenzamide] | > 10000 nM | 3000 nM | 7870 nM
3 | C=CC(=O)Nc1ccc(F)c(Nc2nc(Nc3cnn(C)c3)ncc2-c2cn[nH]c2)c1 [Compound 98, N-(4-fluoro-3-((2-((1-methyl-1H-pyrazol-4-yl)amino)-5-(1H-pyrazol-4-yl)pyrimidin-4-yl)amino)phenyl)acrylamide] | > 10000 nM | 942 nM | 671 nM
4 | C=CC(=O)Nc1ccc(F)c(Nc2nc(Nc3cnn(C)c3)ncc2C2=CCN(C)CC2)c1 [Compound 114, N-(4-fluoro-3-((5-(1-methyl-1,2,3,6-tetrahydropyridin-4-yl)-2-((1-methyl-1H-pyrazol-4-yl)amino)pyrimidin-4-yl)amino)phenyl)acrylamide] | 816 nM | 964 nM | 1840 nM
5 | C=CC(=O)Nc1ccc(N(C)C)c(Nc2nc(Nc3cnn(C)c3)ncc2-c2ccc(C(F)(F)F)cc2)c1 [Compound 119, N-(4-(dimethylamino)-3-((2-((1-methyl-1H-pyrazol-4-yl)amino)-5-(4-(trifluoromethyl)phenyl)pyrimidin-4-yl)amino)phenyl)acrylamide trifluoroacetate] | > 10000 nM | > 10000 nM | > 10000 nM
6 | C=CC(=O)Nc1ccc(F)c(Nc2nc(Nc3cnn(C)c3)ncc2-c2ccc(S(N)(=O)=O)cc2)c1 [Compound 138, N-(4-fluoro-3-((2-((1-methyl-1H-pyrazol-4-yl)amino)-5-(4-sulfamoylphenyl)pyrimidin-4-yl)amino)phenyl)acrylamide] | > 10000 nM | 2880 nM | 3140 nM
7 | C=CC(=O)Nc1ccc(F)c(Nc2nc(Nc3cnn(C)c3)ncc2-c2cccc(N(C)C)c2)c1 [Compound 145, N-(3-((5-(3-(dimethylamino)phenyl)-2-((1-methyl-1H-pyrazol-4-yl)amino)pyrimidin-4-yl)amino)-4-fluorophenyl)acrylamide] | 3980 nM | 2020 nM | 911 nM
8 | C=CC(=O)Nc1ccc(F)c(Nc2nc(Nc3cnn(C)c3)cnc2Cl)c1 [Compound 153, N-(3-((3-chloro-6-((1-methyl-1H-pyrazol-4-yl)amino)pyrazin-2-yl)amino)-4-fluorophenyl)acrylamide] | > 10000 nM | > 10000 nM | > 10000 nM
9 | C=CC(=O)Nc1cccc(Oc2nc(Nc3cnn(C)c3)cnc2Cl)c1 [Compound 154, N-(3-((3-chloro-6-((1-methyl-1H-pyrazol-4-yl)amino)pyrazin-2-yl)oxy)phenyl)acrylamide] | > 10000 nM | > 10000 nM | > 10000 nM
10 | C=CC(=O)Nc1ccc(F)c(Nc2nc(Nc3cnn(C)c3)nnc2Cl)c1 [Compound 155, N-(3-((6-chloro-3-((1-methyl-1H-pyrazol-4-yl)amino)-1,2,4-triazin-5-yl)amino)-4-fluorophenyl)acrylamide] | 6460 nM | 2480 nM | 1410 nM
11 | C=CC(=O)Nc1ccc(C(=O)Nc2ccccc2)c(Nc2nc(Nc3cnn(C)c3)ncc2Cl)c1 [Compound 163, 2-({5-chloro-2-[(1-methyl-1H-pyrazol-4-yl)amino]pyrimidin-4-yl}amino)-N-phenyl-4-(prop-2-enamido) benzamide] | 8250 nM | 9440 nM | > 10000 nM
12 | C=CC(=O)Nc1ccc(C(F)(F)F)c(Oc2nc(Nc3cnn(C)c3)ncc2Cl)c1 [Compound 169, N-(3-((5-chloro-2-((1-methyl-1H-pyrazol-4-yl)amino)pyrimidin-4-yl)oxy)-4-(trifluoromethyl)phenyl)acrylamide] | 9690 nM | 8950 nM | > 10000 nM
13 | C=CC(=O)Nc1ccc(OC)c(Oc2nc(Nc3cnn(CCO)c3)ncc2Cl)c1 [Compound 171, N-(3-((5-chloro-2-((1-(2-hydroxyethyl)-1H-pyrazol-4-yl)amino)pyrimidin-4-yl)oxy)-4-methoxyphenyl)acrylamide] | > 10000 nM | > 10000 nM | > 10000 nM
14 | CN(C)C/C=C/C(=O)Nc1cccc(F)c1CNc1nc(Nc2cnn(C)c2)ncc1Cl [Compound 174, (E)-N-(2-(((5-chloro-2-((1-methyl-1H-pyrazol-4-yl)amino)pyrimidin-4-yl)amino)methyl)-3-fluorophenyl)-4-(dimethylamino)but-2-enamide] | > 10000 nM | > 10000 nM | > 10000 nM
15 | C=CC(=O)Nc1ccc(C#Cc2ccccc2)c(Nc2nc(Nc3cnn(C)c3)ncc2Cl)c1 [Compound 178, N-[3-({5-chloro-2-[(1-methyl-1H-pyrazol-4-yl)amino]pyrimidin-4-yl}amino)-4-(2-phenylethynyl)phenyl] prop-2-enamide] | 9970 nM | > 10000 nM | > 10000 nM
16 | C=CC(=O)Nc1ccc(F)c(Nc2nc(NC3CC3)ncc2-c2ccc(C(F)(F)F)cc2)c1 [Compound 180, N-(3-{[2-(cyclopropylamino)-5-[4-(trifluoromethyl)phenyl]pyrimidin-4-yl]amino}-4-fluorophenyl)prop-2-enamide] | > 10000 nM | > 10000 nM | > 10000 nM

Further lines, results first:

Row | IC50 [1] | GI50 [2] | GI50 [3] | SMILES
17 | 1940 nM | 2740 nM | 1000 nM | C=CC(=O)Nc1ccc(F)c(Nc2nc(Nc3cnn(C)c3)ncc2-c2ccccc2C(F)(F)F)c1 [Compound 65, N-(4-fluoro-3-((2-((1-methyl-1H-pyrazol-4-yl)amino)-5-(2-(trifluoromethyl)phenyl)pyrimidin-4-yl)amino)phenyl)acrylamide]
18 | 82 nM | 751 nM | 256 nM | C=CC(=O)Nc1ccc(F)c(Nc2nc(Nc3cnn(C)c3)ncc2-c2ccnc(C)c2)c1 [Compound 80, N-(4-fluoro-3-((2-((1-methyl-1H-pyrazol-4-yl)amino)-5-(2-methylpyridin-4-yl)pyrimidin-4-yl)amino)phenyl)acrylamide]
19 | 201 nM | 263 nM | 317 nM | C=CC(=O)Nc1ccc(F)c(Nc2nc(Nc3ccn(C)n3)ncc2-c2ccc(C(F)(F)F)cc2)c1 [Compound 113, N-(4-fluoro-3-((2-((1-methyl-1H-pyrazol-3-yl)amino)-5-(4-(trifluoromethyl)phenyl)pyrimidin-4-yl)amino)phenyl)acrylamide trifluoroacetate]
20 | 3800 nM | 875 nM | 967 nM | C=CC(=O)Nc1ccc(F)c(Nc2nc(Nc3cnn(C)c3)ncc2C2CC2)c1 [Compound 120, N-(3-((5-cyclopropyl-2-((1-methyl-1H-pyrazol-4-yl)amino)pyrimidin-4-yl)amino)-4-fluorophenyl)acrylamide trifluoroacetate]
21 | 1280 nM | > 10000 nM | 2870 nM | C=CC(=O)Nc1ccc(F)c(Nc2nc(Nc3ccccc3)ncc2-c2ccc(C(F)(F)F)cc2)c1 [Compound 121, N-(4-fluoro-3-((2-(phenylamino)-5-(4-(trifluoromethyl)phenyl)pyrimidin-4-yl)amino)phenyl)acrylamide]
22 | 3690 nM | > 10000 nM | 1990 nM | C=CC(=O)Nc1ccc(F)c(Nc2nc(Nc3ccc(F)cc3)ncc2-c2ccc(C(F)(F)F)cc2)c1 [Compound 122, N-(4-fluoro-3-((2-((4-fluorophenyl)amino)-5-(4-(trifluoromethyl)phenyl)pyrimidin-4-yl)amino)phenyl)acrylamide trifluoroacetate]
23 | 1530 nM | 284 nM | 328 nM | C=CC(=O)Nc1ccc(F)c(Nc2nc(Nc3cnn(C)c3)ncc2C2=CCOCC2)c1 [Compound 124, N-(3-((5-(3,6-dihydro-2H-pyran-4-yl)-2-((1-methyl-1H-pyrazol-4-yl)amino)pyrimidin-4-yl)amino)-4-fluorophenyl)acrylamide]
24 | 3280 nM | 8410 nM | > 10000 nM | C=CC(=O)Nc1ccc(F)c(Nc2nc(Nc3cnn(C)c3)ncc2-c2cccc(CN(C)C)c2)c1 [Compound 134, N-(3-((5-(3-((dimethylamino)methyl)phenyl)-2-((1-methyl-1H-pyrazol-4-yl)amino)pyrimidin-4-yl)amino)-4-fluorophenyl)acrylamide]
25 | 235 nM | 300 nM | 276 nM | C=CC(=O)Nc1ccc(F)c(Nc2nc(Nc3cnn(C)c3)ncc2-c2cccc(OC(F)F)c2)c1 [Compound 143, N-(3-((5-(3-(difluoromethoxy)phenyl)-2-((1-methyl-1H-pyrazol-4-yl)amino)pyrimidin-4-yl)amino)-4-fluorophenyl)acrylamide trifluoroacetate]
